Measured values from patent publication US20220288057A1, “CONJOINT THERAPY FOR TREATING SEIZURE DISORDERS” (XENON PHARMACEUTICALS INC., priority 2021, published 2022).
Several values for one entry are separate records, joined by “and”; a condition that tells them apart may be missing. Equal values may be shown once.

Assays:
[1] = Plasma and brain concentrations after MES testing (UHPLC-ESI-MS/MS); settings: for concentration at 0.5 h / concentration at 2 h: in vivo;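 on all read-outs here: brain and plasma were sampled from mice right after the efficacy test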
in vivo = settings: mouse
[2] = Compound A 0.25 mg/kg PO 2 h alone (phenytoin study), 0.25 mg/kg
[3] = Compound A 0.75 mg/kg PO 2 h alone (phenytoin study), 0.75 mg/kg
[4] = Compound A 1 mg/kg PO 2 h alone (levetiracetam study), 1 mg/kg
[5] = Compound A 1 mg/kg PO 2 h alone (phenytoin study), 1 mg/kg
[6] = Compound A 1 mg/kg PO 2 h alone (valproic acid study), 1 mg/kg
[7] = Compound A 2.5 mg/kg PO 2 h alone (phenytoin study), 2.5 mg/kg
[8] = analyte Compound A, 0.25 mg/kg + 2 mg/kg Phenytoin
[9] = analyte Compound A, 0.75 mg/kg + 2 mg/kg Phenytoin
[10] = analyte Compound A, 1 mg/kg + 2 mg/kg Phenytoin
[11] = analyte Compound A, 1 mg/kg PO + 100 mg/kg Valproic Acid IP
[12] = analyte Compound A, 2.5 mg/kg + 2 mg/kg Phenytoin

With `Cc1cc(N2CCc3cc(F)ccc3C2)cc(C)c1NC(=O)CC(C)(C)C` [Compound A, N-[4-(6-fluoro-3,4-dihydro-1H-isoquinolin-2-yl)-2,6-dimethylphenyl]-3,3-dimethylbutanamide] the concentration at 0.5 h ([1]; CF-1, mouse, po, 8 mg/kg, Concentration Brain, Compound A 8 mg/kg PO, 0.5 hr) was 402 ng/g, the concentration at 2 h ([1]; CF-1, mouse, po, 8 mg/kg, Concentration Brain, Compound A 8 mg/kg PO, 2 hr) was 208 ng/g and the concentration at 0.5 h ([1]; CF-1, mouse, po, 8 mg/kg, Concentration Plasma, Compound A 8 mg/kg PO single dose, tissue collection 0.5 hr) was 710 nM. The concentration at 2 h ([1]; CF-1, mouse, po, 8 mg/kg, Concentration Plasma, Compound A 8 mg/kg PO single dose, tissue collection 2 hr) was 430 nM, the concentration at 0.5 h ([1]; CF-1, mouse, po, 8 mg/kg, Concentration Plasma, Compound A 8 mg/kg PO, 0.5 hr) was 261 ng/mL and the concentration at 2 h ([1]; CF-1, mouse, po, 8 mg/kg, Concentration Plasma, Compound A 8 mg/kg PO, 2 hr) was 158 ng/mL. For the same compound, the “Brain concentration, Mean” value [1, 2] was 40 nM, the “Plasma concentration, Mean” value [1, 2] was 0.01 μM and 4.3 ng/mL and the “Brain concentration, Mean” value [1, 3] was 120 nM. The “Plasma concentration, Mean” value [1, 3] was 0.03 μM and 11.7 ng/mL, the “Brain concentration, Mean” value [1, 4] was 60 nM and the “Plasma concentration, Mean” value [1, 4] was 0.03 μM and 11.1 ng/mL. The “Brain concentration, Mean” value [1, 5] was 90 nM, the “Plasma concentration, Mean” value [1, 5] was 0.05 μM and 17.0 ng/mL and the “Brain concentration, Mean” value [1, 6] was 160 nM. For the same compound, the “Plasma concentration, Mean” value [1, 6] was 0.066 μM and 24 ng/mL, the “Concentration Plasma” value ([1]; Compound A 1 mg/kg PO single dose, tissue collection 2 hr, 1 mg/kg) was 100 nM and the “Brain concentration, Mean” value [1, 7] was 390 nM. For the same compound, the “Plasma concentration, Mean” value [1, 7] was 45.1 ng/mL and 0.12 μM, the “Brain concentration, Mean” value [1, 8] was 50 nM and the “Plasma concentration, Mean” value [1, 8] was 0.02 μM and 5.6 ng/mL. For the same compound, the “Brain concentration, Mean” value [1, 9] was 150 nM, the “Plasma concentration, Mean” value [1, 9] was 0.04 μM and 16.0 ng/mL and the “Brain concentration, Mean” value [1, 10] was 100 nM. For the same compound, the “Plasma concentration, Mean” value [1, 10] was 0.05 μM and 19.0 ng/mL, the “Brain concentration, Mean” value [1, 11] was 97 nM and the “Plasma concentration, Mean” value [1, 11] was 0.042 μM and 15 ng/mL. For the same compound, the “Brain concentration, Mean” value [1, 12] was 510 nM, the “Plasma concentration, Mean” value [1, 12] was 58.4 ng/mL and 0.16 μM and the concentration at 2 h ([1]; mouse, 1 mg/kg, plasma concentration, Compound A 1 mg/kg, mean±SEM, n=15) was 66 ± 14 nM. For the same compound, the concentration at 2 h ([1]; mouse, Brain concentration, Mean, analyte Compound A, 0.25 mg/kg + 2 mg/kg Phenytoin) was 50 nM and 18.4 ng/g, the concentration at 2 h ([1]; mouse, Brain concentration, Mean, analyte Compound A, 0.75 mg/kg + 2 mg/kg Phenytoin) was 150 nM and 56.7 ng/g and the concentration at 2 h ([1]; mouse, Brain concentration, Mean, analyte Compound A, 1 mg/kg + 2 mg/kg Phenytoin) was 100 nM and 37 ng/g. For the same compound, the concentration at 2 h ([1]; mouse, Brain concentration, Mean, analyte Compound A, 1 mg/kg PO + 100 mg/kg Valproic Acid IP) was 97 nM and 36 ng/g, the concentration at 2 h ([1]; mouse, Brain concentration, Mean, analyte Compound A, 2.5 mg/kg + 2 mg/kg Phenytoin) was 510 nM and 186 ng/g and the concentration at 2 h ([1]; mouse, Plasma concentration, Mean, analyte Compound A, 0.25 mg/kg + 2 mg/kg Phenytoin) was 20 nM and 5.6 ng/mL. For the same compound, the concentration at 2 h ([1]; mouse, Plasma concentration, Mean, analyte Compound A, 0.75 mg/kg + 2 mg/kg Phenytoin) was 40 nM and 16 ng/mL, the concentration at 2 h ([1]; mouse, Plasma concentration, Mean, analyte Compound A, 1 mg/kg + 2 mg/kg Phenytoin) was 50 nM and 19 ng/mL and the concentration at 2 h ([1]; mouse, Plasma concentration, Mean, analyte Compound A, 1 mg/kg PO + 100 mg/kg Valproic Acid IP) was 42 nM and 15 ng/mL. For the same compound, the concentration at 2 h ([1]; mouse, Plasma concentration, Mean, analyte Compound A, 2.5 mg/kg + 2 mg/kg Phenytoin) was 160 nM and 58.4 ng/mL, the concentration at 2 h ([1]; mouse, mean total brain concentration, analyte Compound A, 1 mg/kg PO + Valproic Acid 30 mg/kg IP) was 75 nM and 28 ng/g and the concentration at 2 h ([1]; mouse, mean total brain concentration, analyte Compound A, 1 mg/kg PO + Valproic Acid 56 mg/kg IP) was 117 nM and 43 ng/g. The concentration at 2 h ([1]; mouse, mean total plasma concentration, analyte Compound A, 1 mg/kg PO + Valproic Acid 30 mg/kg IP) was 38 nM and 14 ng/mL, the concentration at 2 h ([1]; mouse, mean total plasma concentration, analyte Compound A, 1 mg/kg PO + Valproic Acid 56 mg/kg IP) was 18 ng/mL and 50 nM and the concentration at 2 h ([1]; mouse, po, 0.25 mg/kg, Brain concentration, Mean, Compound A 0.25 mg/kg PO 2 h alone (phenytoin study)) was 40 nM and 14.8 ng/g. For the same compound, the concentration at 2 h ([1]; mouse, po, 0.25 mg/kg, Plasma concentration, Mean, Compound A 0.25 mg/kg PO 2 h alone (phenytoin study)) was 10 nM and 4.3 ng/mL, the concentration at 2 h ([1]; mouse, po, 0.75 mg/kg, Brain concentration, Mean, Compound A 0.75 mg/kg PO 2 h alone (phenytoin study)) was 120 nM and 43.8 ng/g and the concentration at 2 h ([1]; mouse, po, 0.75 mg/kg, Plasma concentration, Mean, Compound A 0.75 mg/kg PO 2 h alone (phenytoin study)) was 11.7 ng/mL and 30 nM. The concentration at 2 h ([1]; mouse, po, 1 mg/kg, Brain concentration, Mean, Compound A 1 mg/kg PO 2 h alone (levetiracetam study)) was 60 nM and 20.9 ng/g, the concentration at 2 h ([1]; mouse, po, 1 mg/kg, Brain concentration, Mean, Compound A 1 mg/kg PO 2 h alone (phenytoin study)) was 100 nM and 35 ng/g and the concentration at 2 h ([1]; mouse, po, 1 mg/kg, Brain concentration, Mean, Compound A 1 mg/kg PO 2 h alone (valproic acid study)) was 160 nM and 59 ng/g. For the same compound, the concentration at 2 h ([1]; mouse, po, 1 mg/kg, Plasma concentration, Mean, Compound A 1 mg/kg PO 2 h alone (levetiracetam study)) was 30 nM and 11.1 ng/mL, the concentration at 2 h ([1]; mouse, po, 1 mg/kg, Plasma concentration, Mean, Compound A 1 mg/kg PO 2 h alone (phenytoin study)) was 50 nM and 17 ng/mL and the concentration at 2 h ([1]; mouse, po, 1 mg/kg, Plasma concentration, Mean, Compound A 1 mg/kg PO 2 h alone (valproic acid study)) was 66 nM and 24 ng/mL. For the same compound, the concentration at 2 h ([1]; mouse, po, 2.5 mg/kg, Brain concentration, Mean, Compound A 2.5 mg/kg PO 2 h alone (phenytoin study)) was 390 nM and 144 ng/g, the concentration at 2 h ([1]; mouse, po, 2.5 mg/kg, Plasma concentration, Mean, Compound A 2.5 mg/kg PO 2 h alone (phenytoin study)) was 120 nM and 45.1 ng/mL and the concentration at 2 h (in vivo) was 30 nM and 11.1 ng/mL.
